{
  "source": "patent US20250325675A1",
  "about": "“APTAMER, CONJUGATE, COMPOSITION, METHOD FOR PREPARING SAME, AND USE THEREOF” (priority 2022, published 2025)",
  "molecules": {"B1": {"name": "conjugate 38: siRNA sense strand 5′ terminal linked to 2′-O-cetyl modified aptamer by four propylene phosphate ester groups; Cy5 on antisense strand; SEQ ID NO: 72/48 (conjugate)", "sense": "CUGGAGUUCAGACGUGUUGCUCUUCCGAUCUCUUCUAGAAAACUGGAUAACGU", "antisense": "ACGUUAUCCAGUUUUCUAGCC", "modifications": "cetyl-modified aptamer, propylene phosphate linkers, Cy5, chemistry not fully specified"}, "B2": {"name": "conjugate 37: siRNA sense strand 3′ terminal linked to AP2 delivery group by Spacer18-GfAfUf; Cy5 on antisense strand; SEQ ID NO: 71/48 (conjugate)", "sense": "CUAGAAAACUGGAUAACGUGAUCUGGAGUUCAGACGUGUUGCUCUUCCGAUCUC", "antisense": "ACGUUAUCCAGUUUUCUAGCC", "modifications": "AP2 delivery group, Spacer18 linker, Cy5; misc_feature 19 is linked to Spacer18 at 3' end"}},
  "key": {"[1]": {"tested_on": "293T human renal epithelial cells", "assay": "High content imaging: entry of conjugates into 293T cells", "assay_type": "cell-based", "details": "100 nM, 30 min 37°C, normal cells", "method": "(§1) In this experiment, the entry of conjugate AP1 provided by the present disclosure and comparative conjugate comparative AP10 into different cells was observed by a PerkinElmer High Content Imaging system (Operatta).\n(§2) U118MG glioma cells, SVGp12 normal astrocytes, T98G human brain glioma cells, U251 human glioma cells, A549 human non-small cell lung cancer cells, MCF-7 human breast cancer cells, and 293T human kidney epithelial cells were all purchased from the Shanghai Cell Bank of Chinese Academy of Sciences. […] The supernatant was aspirated and DPBS buffer (purchased from Thermo Fisher) was added to wash the plate 2 times (100 μL each time).\n(§3) Conjugate AP1 prepared above and yeast tRNA were respectively formulated into conjugate solution 2A with DMEM medium, and the conjugate solution 2A comprised yeast tRNA at a final concentration of 100 μg/mL and conjugate AP1 at a final concentration of 100 nM. […]\n(§4) Normalization was performed according to the mean fluorescence intensity of control group 2Y, that is, subtracting the mean fluorescence intensity of control group 2Y from the fluorescence intensity of test group 2X before performing imaging."}, "[2]": {"tested_on": "U118MG glioma tumor spheres", "assay": "High content imaging: entry into U118MG tumor spheres", "assay_type": "cell-based, human", "details": "100 nM, imaging without washing", "method": "(§5) In this experiment, the entry of conjugate AP1 provided by the present disclosure and comparative conjugate comparative AP10 into U118MG glioma tumor spheres and A549 human non-small cell lung cancer tumor spheres was observed by a PerkinElmer High Content Imaging system (Operatta).\n(§6) 80 μL fresh, sterilized and unsolidified 2% agarose was added into the culture wells of a 96-well plate. […] Half of the supernatant was aspirated every 48 h and fresh DMEM medium was added along the wall of the culture wells. After 7 days of culture, the cells were observed under the microscope to confirm that complete cell spheres were obtained, indicating successful tumor sphere cultivation.\n(§7) Each culture well was added with AP1 or comparative AP10 according to the method of experimental Example 2, and imaged in a high content imaging system, with the only difference of directly performing imaging after culture without washing and performing imaging according to the measured fluorescence intensity of Cy5."}, "U118-MG glioma cells": {"tested_on": "U118-MG glioma cells", "assay": "Flow cytometry: entry of conjugates into U118-MG glioma cells in vitro", "assay_type": "cell-based, human", "details": "1 h 37°C, yeast tRNA 100 μg/mL, flow cytometry", "method": "U118MG cells were seeded into a 96-well plate at 5×10^5 cells/well. Conjugate AP1 prepared above and yeast tRNA were respectively formulated into conjugates solution 1A, 1B, 1C, 1D, 1E, 1F, 1G, 1H, and 1I with DMEM medium, and these conjugate solutions 1A-1I comprised yeast tRNA at a final concentration of 100 μg/mL and respectively comprised conjugate AP1 at final concentrations of 5 nM, 10 nM, 20 nM, 40 nM, 60 nM, 80 nM, 100 nM, 150 nM, 200 nM, and […].\nControl conjugate comparative AP10 prepared above and yeast tRNA were respectively formulated into conjugates solution 1A′, 1B′, 1C′, 1D′, 1E′, 1F′, 1G′ 1H′, and 1I′ with DMEM medium, and these conjugate solutions 1A′-1I′ comprised yeast tRNA at a final concentration of 100 μg/mL and respectively comprised control conjugate comparative AP10 at final concentrations of 5 nM, 10 nM, 20 nM, 40 nM, 60 nM, 80 nM, 100 nM, 150 nM, 200 nM, and […].\nThe aforementioned culture wells containing U118MG cells were respectively added with the conjugate solutions 1A-1I above in an amount of 200 μL/well and designated as test group 1A-test group 1I. The aforementioned culture wells containing U118MG cells were respectively added with the conjugate solution 1A′-1I′ above in an amount of 200 μL/well and designated as control group 1A′-control group 1I′. Another culture well containing U118MG cells was added with 200 μL DMEM medium containing yeast tRNA at a final concentration of 100 μg/mL and designated as blank control group 1J. The 96-well plate containing the above test groups and the blank control group were incubated at 37° C. for 1 h in the dark; after incubation, the supernatant of the reaction mixture of each test group and the blank control group was aspirated, and DPBS buffer (purchased from Thermo Fisher) was added to wash the plate 3 times (100 μL each time). After the washing solution was aspirated, each culture well was added with 100 μL DMEM medium to obtain a cell suspension. The supernatant was removed by centrifugation and then 500 μL DPBS buffer was added to re-suspend the cells. Flow cytometry analysis was performed with flow cytometer (BD Biosciences): 10,000 cells in each test group or the blank control group were analyzed, the fluorescence intensity distribution was determined and the mean fluorescence intensity (MFI, a.u.) was calculated. Furthermore, the mean fluorescence intensity corresponding to each final concentration of conjugates is listed in Table 4 below for comparison, and the relative fluorescence difference R is calculated according to the following equation: R=(MFIAP1−MFICAP10)/MFICAP10.\nTherein, MFIAP1 represents mean fluorescence intensity of conjugate AP1 in U118-MG glioma cells, and MFICAP10 represents mean fluorescence intensity of comparative AP10 in U118-MG glioma cells."}, "[3]": {"tested_on": "A549 human non-small cell lung cancer tumor spheres", "assay": "High content imaging: entry into A549 tumor spheres", "assay_type": "cell-based", "details": "100 nM, imaging without washing", "method": "as §5, §6, §7"}, "[4]": {"tested_on": "MCF-7 human breast cancer cells", "assay": "High content imaging: entry of conjugates into MCF-7 cells", "assay_type": "cell-based", "details": "100 nM, 30 min 37°C", "method": "as §1, §2, §3, §4"}, "U251 human glioma cells": {"tested_on": "U251 human glioma cells", "assay": "High content imaging: entry of conjugates into U251 cells", "assay_type": "cell-based", "details": "100 nM, 30 min 37°C", "method": "as §1, §2, §3, §4"}, "SVGp12 normal astrocytes": {"tested_on": "SVGp12 normal astrocytes", "assay": "High content imaging: entry of conjugates into SVGp12 normal astrocytes", "assay_type": "cell-based, human", "details": "100 nM, 30 min 37°C", "method": "as §1, §2, §3, §4"}, "[5]": {"tested_on": "A549 human non-small cell lung cancer cells", "assay": "High content imaging: entry of conjugates into A549 cells", "assay_type": "cell-based", "details": "100 nM, 30 min 37°C", "method": "as §1, §2, §3, §4"}, "[6]": {"tested_on": "U118MG subcutaneous tumor", "assay": "In vivo distribution of conjugates with different modifications in U118MG subcutaneous tumor model mice (Experimental Example 6)", "parameters": "species or system NOD-SCID mice", "details": "3 mg/kg tail vein; 4 h to 24 h after administration", "method": "U118MG subcutaneous tumor model mice were prepared according to the method described in experimental Example 4.\n9 mice were divided into 3 groups (3 mice per group). AP2, AP3 and comparative AP12 solutions were respectively administered to each mouse of each group by tail vein injection. […] The three groups of mice were respectively designated as test group 6A, test group 6B and test group 6C. […] On Day 10 after administration, one mouse of blank control group 6Y and one mouse of test group 6A was respectively euthanized and tumor tissues were taken for fluorescence imaging, and the results are shown in FIG. 5H. In FIGS. 5A-5H, Blank represents blank control group 6Y."}, "hSTAT3 mRNA": {"tested_on": "hSTAT3 mRNA", "assay": "hSTAT3 mRNA inhibition by free uptake in PANC-1 cells, qPCR (Experimental Example 18)", "assay_type": "cell-based", "details": "PANC1 human pancreatic cancer cells, free uptake 2 μM, RNA extracted after 7 days", "method": "PANC-1 human pancreatic cancer cells in the logarithmic growth phase were selected and digested (0.25% pancreatic enzyme). The cells were collected, centrifuged to remove the supernatant, and then resuspended in DMEM medium containing 10% FBS to be formulated into cell culture solution with a concentration of 1×10^5 cells/mL. The solutions were mixed thoroughly, seeded into a 24-well plate (with 1 mL/well, i.e. 1×10^5 cells/well).\nAfter respectively culturing the cell solutions in different culture wells of a 24-well plate for 24 h, the supernatant was aspirated and 900 μL DMEM medium containing 10% FBS was added into each well. […]\nFor each reverse transcription reaction system, 5 μL of the above cDNA-containing solution was taken as the template. By using a SYBR Select Master Mix Kit (purchased from Thermo Fisher Scientific, Cat. No. 4472908), the target gene hSTAT3 and the internal control gene hGAPDH were amplified in a SteponePlus™ Real-Time fluorescence quantitative PCR Thermal Cycler (purchased from Thermo Fisher Scientific) according to the operation method the instruction. […]\nFor each test group and control group, the above quantitative PCR detection was performed twice.\nThe fluorescence quantitative data was analyzed by relative quantitative 2^−ΔΔct method, and the calculation method was as follows: […]"}},
  "data": [
    {"molecule": "CY5-CfCfAGAGUfCfGCfUfGAGAUfUfCfGUfGGCfGCfUfAUfAUf (CCAGAGUCGCUGAGAUUCGUGGCGCUAUAU; listed as RNA, chemistry not fully specified) [comparative AP10, reference compound]", "values": [
      {"measurement": "Cy5 fluorescence signal in cells", "setting": "[1]", "result": "nor the 293T human renal epithelial cells showed any fluorescence signal"},
      {"measurement": "Cy5 fluorescence signal in tumor spheres", "setting": "[2]", "result": "only the edge of the comparative AP10-treated tumor spheres showed significantly weak fluorescence signal"},
      {"measurement": "mean fluorescence intensity (MFI)", "setting": "U118-MG glioma cells; conjugate 5 nM", "result": 25.4, "unit": "a.u."},
      {"measurement": "mean fluorescence intensity (MFI)", "setting": "U118-MG glioma cells; conjugate 10 nM", "result": 67.4, "unit": "a.u."},
      {"measurement": "mean fluorescence intensity (MFI)", "setting": "U118-MG glioma cells; conjugate 20 nM", "result": 176.4, "unit": "a.u."},
      {"measurement": "mean fluorescence intensity (MFI)", "setting": "U118-MG glioma cells; conjugate 40 nM", "result": 443.4, "unit": "a.u."},
      {"measurement": "mean fluorescence intensity (MFI)", "setting": "U118-MG glioma cells; conjugate 60 nM", "result": 666.4, "unit": "a.u."},
      {"measurement": "mean fluorescence intensity (MFI)", "setting": "U118-MG glioma cells; conjugate 80 nM", "result": 787.4, "unit": "a.u."},
      {"measurement": "mean fluorescence intensity (MFI)", "setting": "U118-MG glioma cells; conjugate 100 nM", "result": 1167.4, "unit": "a.u."},
      {"measurement": "mean fluorescence intensity (MFI)", "setting": "U118-MG glioma cells; conjugate 150 nM", "result": 1251.4, "unit": "a.u."},
      {"measurement": "mean fluorescence intensity (MFI)", "setting": "U118-MG glioma cells; conjugate 200 nM", "result": 1868.4, "unit": "a.u."},
      {"measurement": "mean fluorescence intensity (MFI)", "setting": "U118-MG glioma cells; conjugate 500 nM", "result": 4029.4, "unit": "a.u."},
      {"measurement": "Cy5 fluorescence signal in tumor spheres", "setting": "[3]", "result": "only the edge of the comparative AP10-treated tumor spheres showed significantly weak fluorescence signal"},
      {"measurement": "Cy5 fluorescence signal in cells", "setting": "[4]", "result": "neither the tumor cells treated with comparative AP10 nor the 293T human renal epithelial cells showed any fluorescence signal"},
      {"measurement": "Cy5 fluorescence signal in cells", "setting": "U251 human glioma cells", "result": "neither the tumor cells treated with comparative AP10 nor the 293T human renal epithelial cells showed any fluorescence signal"},
      {"measurement": "Cy5 fluorescence signal in cells", "setting": "SVGp12 normal astrocytes", "result": "did not show any fluorescence signal"},
      {"measurement": "Cy5 fluorescence signal in cells", "setting": "[5]", "result": "neither the tumor cells treated with comparative AP10 nor the 293T human renal epithelial cells showed any fluorescence signal"}
    ]},
    {"molecule": "CY5-CmsUmsGmGmAmGmUmUmCmAmGmAmCmGmUmGmUmUmGmCmUmCmUmUmCmCmGmAmUmCmsUmsCm [AP3]", "values": [
      {"measurement": "fluorescence intensity in vivo / tumor", "setting": "[6]", "result": "still show high fluorescence intensity"}
    ]},
    {"molecule": "CY5-UmCmUmAmUmGmGmCmUmGmCmCmGmAmUmCmUmGmGmUmCmUmCmCmAmUmGmUmAmCmGmUm [AP12]", "values": [
      {"measurement": "fluorescence intensity in vivo / tumor", "setting": "[6]", "result": "still show high fluorescence intensity"}
    ]},
    {"molecule": "B1", "values": [
      {"measurement": "inhibition rate against hSTAT3 mRNA", "setting": "hSTAT3 mRNA", "result": 44, "unit": "%"}
    ]},
    {"molecule": "B2", "values": [
      {"measurement": "inhibition rate against hSTAT3 mRNA", "setting": "hSTAT3 mRNA", "result": 33, "unit": "%"}
    ]}
  ]
}
